# Data as given in US20210045385A1, “PYRIDAZINONE-SUBSTITUTED KETOXIMES AS HERBICIDES” (FMC Corporation, priority 2018, published 2021).
# Tests used:
# Type in all cases: in vivo
# [1] = test system: pigweed (Amaranthus retroflexus); assay: Test C preemergence, visual plant response rating; details: Test C, 0 is no effect, 100 is complete control
# Method in brief: (§1)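 Compounds in a non-phytotoxic solvent with surfactant were applied as a directed soil spray preemergence or to 2–10 cm, one- to two-leaf plants postemergence, in loam–sand soil. After about 10 d in a greenhouse, injury was visually rated against untreated controls on a 0–100 scale (100 = complete control).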
# [2] = test system: Italian ryegrass (Lolium mutiflorum); assay: Test C preemergence, visual plant response rating; details: Test C, 0 is no effect, 100 is complete control
# Method in brief: as §1
# kochia (Bassia scoparia) [3] = assay: Test C preemergence, visual plant response rating; details: Test C, 0 is no effect, 100 is complete control
# Method in brief: as §1
# [4] = test system: foxtail, giant (giant foxtail, Setaria faberi); assay: Test C preemergence, visual plant response rating; details: Test C, 0 is no effect, 100 is complete control
# Method in brief: as §1
# [5] = test system: ragweed (common ragweed, Ambrosia artemisiifolia); assay: Test C preemergence, visual plant response rating; details: Test C, 0 is no effect, 100 is complete control
# Method in brief: as §1
# [6] = test system: barnyardgrass (Echinochloa crus-galli); assay: Test C preemergence, visual plant response rating; details: Test C, 0 is no effect, 100 is complete control
# Method in brief: as §1
# [7] = test system: duck salad (Heteranthera limosa); assay: Test D flooded paddy test, visual plant response rating; details: 250 g ai/ha, scale 0 to 100 (0 no effect, 100 complete control), 13 to 15 d
# Method in brief: (§2)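 2-leaf plants, flooded 3 cm, cpd into paddy water; greenhouse 13–15 d; visual rating vs controls, 0 = no effect, 100 = complete control; dash = no result.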
# rice (Oryza sativa) = assay: as above; details: 250 g ai/ha, scale 0 to 100 (0 no effect, 100 complete control), 13 to 15 d
# Method in brief: as §2
# [8] = test system: barnyardgrass (Echinochloa crus-galli); assay: as above; details: 250 g ai/ha, scale 0 to 100 (0 no effect, 100 complete control), 13 to 15 d
# Method in brief: as §2
# [9] = test system: sedge umbrella (small-flower umbrella sedge, Cyperus difformis); assay: as above; details: 250 g ai/ha, scale 0 to 100 (0 no effect, 100 complete control), 13 to 15 d
# Method in brief: as §2
# [10] = test system: pigweed (Amaranthus retroflexus); assay: Test C postemergence, visual plant response rating
# Method in brief: as §1
# [11] = test system: Italian ryegrass (Lolium mutiflorum); assay: Test C postemergence, visual plant response rating
# Method in brief: as §1
# kochia (Bassia scoparia) [12] = assay: Test C postemergence, visual plant response rating
# Method in brief: as §1
# corn (Zea mays) = assay: Test C postemergence, visual plant response rating
# Method in brief: as §1
# [13] = test system: foxtail, giant (giant foxtail, Setaria faberi); assay: Test C postemergence, visual plant response rating
# Method in brief: as §1
# [14] = test system: wheat (Triticum aestivum); assay: Test C postemergence, visual plant response rating
# Method in brief: as §1
# [15] = test system: ragweed (common ragweed, Ambrosia artemisiifolia); assay: Test C postemergence, visual plant response rating
# Method in brief: as §1
# [16] = test system: barnyardgrass (Echinochloa crus-galli); assay: Test C postemergence, visual plant response rating
# Method in brief: as §1
# [17] = test system: blackgrass (Alopecurus myosuroides); assay: Test C postemergence, visual plant response rating
# Method in brief: as §1
# [18] = test system: galium (catchweed bedstraw, Galium aparine); assay: Test C postemergence, visual plant response rating
# Method in brief: as §1
# [19] = Test C, postemergence, 125 g ai/ha
Structure (SMILES),Pigweed plant response rating (0 to 100 scale) ([1]; 31 g ai/ha),Pigweed plant response rating (0 to 100 scale) ([1]; 125 g ai/ha),"Ryegrass, Italian plant response rating (0 to 100 scale) ([2]; 31 g ai/ha)","Ryegrass, Italian plant response rating (0 to 100 scale) ([2]; 125 g ai/ha)",Kochia plant response rating (0 to 100 scale) (kochia (Bassia scoparia) [3]; 31 g ai/ha),Kochia plant response rating (0 to 100 scale) (kochia (Bassia scoparia) [3]; 125 g ai/ha),"Foxtail, Giant plant response rating (0 to 100 scale) ([4]; 31 g ai/ha)","Foxtail, Giant plant response rating (0 to 100 scale) ([4]; 125 g ai/ha)",Ragweed plant response rating (0 to 100 scale) ([5]; 31 g ai/ha),Ragweed plant response rating (0 to 100 scale) ([5]; 125 g ai/ha),Barnyardgrass plant response rating (0 to 100 scale) ([6]; 31 g ai/ha),Barnyardgrass plant response rating (0 to 100 scale) ([6]; 125 g ai/ha),"Plant response rating, Ducksalad (Flood) [7]","Plant response rating, Rice (Flood) (rice (Oryza sativa))","Plant response rating, Barnyardgrass (Flood) [8]","Plant response rating, Sedge, Umbrella (Flood) [9]","Pigweed plant response rating (0 to 100 scale) ([10]; Postemergence, 31 g ai/ha)","Pigweed plant response rating (0 to 100 scale) [10, 19]","Ryegrass, Italian plant response rating (0 to 100 scale) ([11]; Postemergence, 31 g ai/ha)","Ryegrass, Italian plant response rating (0 to 100 scale) [11, 19]",further results
C#CCON=C(c1cccc(OCC)c1)c1c(O)c(C)nn(C)c1=O [Compound 199],0,10,0,20,0,0,0,10,0,0,0,0,0,0,0,0,0,0,0,0,"Kochia plant response rating (0 to 100 scale) (kochia (Bassia scoparia) [12]; Postemergence, 31 g ai/ha): 0; Kochia plant response rating (0 to 100 scale) (kochia (Bassia scoparia) [12]; [19]): 0; Corn plant response rating (0 to 100 scale) (corn (Zea mays); Postemergence, 31 g ai/ha): 0; Corn plant response rating (0 to 100 scale) (corn (Zea mays); [19]): 0; Foxtail, Giant plant response rating (0 to 100 scale) ([13]; Postemergence, 31 g ai/ha): 0; Foxtail, Giant plant response rating (0 to 100 scale) [13, 19]: 20; Wheat plant response rating (0 to 100 scale) ([14]; Postemergence, 31 g ai/ha): 0; Wheat plant response rating (0 to 100 scale) [14, 19]: 0; Ragweed plant response rating (0 to 100 scale) ([15]; Postemergence, 31 g ai/ha): 0; Ragweed plant response rating (0 to 100 scale) [15, 19]: 0; Barnyardgrass plant response rating (0 to 100 scale) ([16]; Postemergence, 31 g ai/ha): 0; Barnyardgrass plant response rating (0 to 100 scale) [16, 19]: 20; Blackgrass plant response rating (0 to 100 scale) ([17]; Postemergence, 31 g ai/ha): 0; Blackgrass plant response rating (0 to 100 scale) [17, 19]: 20; Galium plant response rating (0 to 100 scale) ([18]; Postemergence, 31 g ai/ha): 20; Galium plant response rating (0 to 100 scale) [18, 19]: 30"
CCOc1cccc(C(=NOC)c2c(O)c(C)nn(C)c2=O)c1 [Compound 200],0,0,0,0,0,0,0,10,0,0,0,0,0,0,0,0,0,0,0,0,"Kochia plant response rating (0 to 100 scale) (kochia (Bassia scoparia) [12]; Postemergence, 31 g ai/ha): 0; Kochia plant response rating (0 to 100 scale) (kochia (Bassia scoparia) [12]; [19]): 0; Corn plant response rating (0 to 100 scale) (corn (Zea mays); Postemergence, 31 g ai/ha): 0; Corn plant response rating (0 to 100 scale) (corn (Zea mays); [19]): 0; Foxtail, Giant plant response rating (0 to 100 scale) ([13]; Postemergence, 31 g ai/ha): 10; Foxtail, Giant plant response rating (0 to 100 scale) [13, 19]: 20; Wheat plant response rating (0 to 100 scale) ([14]; Postemergence, 31 g ai/ha): 0; Wheat plant response rating (0 to 100 scale) [14, 19]: 0; Ragweed plant response rating (0 to 100 scale) ([15]; Postemergence, 31 g ai/ha): 0; Ragweed plant response rating (0 to 100 scale) [15, 19]: 0; Barnyardgrass plant response rating (0 to 100 scale) ([16]; Postemergence, 31 g ai/ha): 20; Barnyardgrass plant response rating (0 to 100 scale) [16, 19]: 30; Blackgrass plant response rating (0 to 100 scale) ([17]; Postemergence, 31 g ai/ha): 0; Blackgrass plant response rating (0 to 100 scale) [17, 19]: 0; Galium plant response rating (0 to 100 scale) ([18]; Postemergence, 31 g ai/ha): 30; Galium plant response rating (0 to 100 scale) [18, 19]: 40"
